Target: Prothrombin (Homo sapiens, UniProt P00734)
Experiment: ChEBML_216950
Description: Dissociation constant was evaluated by competitive inhibition of alpha-thrombin using the method of Dixon enzyme assay.

Ki: 170 µM
Compound: C1=[N+]2c3ccccc3C=[N+]3c4ccccc4C=[N+]4c5ccccc5C[N](c5ccccc51)[Pd]234 (stereo unspecified) [Palladium analogue]

Reference: BindingDB's records for doi:10.1016/s0960-894x(98)00444-2 (Wayne State University, 1999)
